Results: ChEMBL document CHEMBL4340512, “Discovery of novel triazolo[4,3-b]pyridazin-3-yl-quinoline derivatives as PIM inhibitors” (Eur J Med Chem, 2019)

Legend:
MIA PaCa-2 [1] = test: Antiproliferative activity against human MIAPaCa2 cells incubated for 72 hrs by CellTiter-Glo luminescence assay; format: functional; conditions: MIA PaCa-2, 72 h
HCT-116 = test: Antiproliferative activity against human HCT116 cells incubated for 72 hrs by CellTiter-Glo luminescence assay; format: functional; conditions: HCT-116, 72 h
[2] = Clearance in iv dosed Balb/c mouse administered as single dose measured after 0.08 to 4 hrs by HPLC/MS analysis; format: ADME, organism-based; conditions: in vivo
K562 = test: Antiproliferative activity against human K562 cells incubated for 72 hrs by CellTiter-Glo luminescence assay; format: functional; conditions: K562, 72 h
SK-MEL19 [3] = test: Antiproliferative activity against human SK-MEL-19 assessed as combination index at 5 uM incubated for 72 hrs in presence of GI50 dose of GDC-0941 by CellTiter-Glo luminescence assay; format: functional
PC-3 [4] = test: Antiproliferative activity against human PC3 cells incubated for 72 hrs by CellTiter-Glo luminescence assay; format: functional; conditions: PC-3, 72 h
SK-MEL19 [5] = test: Antiproliferative activity against human SK-MEL-19 assessed as combination index at 5 uM incubated for 72 hrs in presence of GI50 dose of Palbociclib by CellTiter-Glo luminescence assay; format: functional
MV4-11 [6] = test: Antiproliferative activity against human MV4-11 assessed as combination index at 10 uM incubated for 72 hrs in presence of GI50 dose of Taxotere by CellTiter-Glo luminescence assay; format: functional
NCI-H1650 = test: Antiproliferative activity against human NCI-H1650 cells incubated for 72 hrs by CellTiter-Glo luminescence assay; format: functional; conditions: NCI-H1650, 72 h
BXPC-3 = test: Antiproliferative activity against human BxPC3 cells incubated for 72 hrs by CellTiter-Glo luminescence assay; format: functional; conditions: BXPC-3, 72 h
COLO 205 = test: Antiproliferative activity against human COLO205 cells incubated for 72 hrs by CellTiter-Glo luminescence assay; format: functional; conditions: COLO 205, 72 h
BT-549 = test: Antiproliferative activity against human BT549 cells incubated for 72 hrs by CellTiter-Glo luminescence assay; format: functional; conditions: BT-549, 72 h
[7] = Clearance in iv dosed Balb/c mouse administered as single dose measured after 0.08 to 4 hrs by HPLC/MS analysis relative to hepatic blood flow; format: ADME, organism-based; conditions: in vivo
A549 = test: Antiproliferative activity against human A549 cells incubated for 72 hrs by CellTiter-Glo luminescence assay; format: functional; conditions: A549, 72 h
PC-3 [8] = test: Antiproliferative activity against human PC3 assessed as combination index at 20 uM incubated for 72 hrs in presence of GI50 dose of Vorinostat by CellTiter-Glo luminescence assay; format: functional
MIA PaCa-2 [9] = test: Antiproliferative activity against human MIAPaCa2 assessed as combination index at 20 uM incubated for 72 hrs in presence of GI50 dose of Lapatinib by CellTiter-Glo luminescence assay; format: functional
U-87 MG = test: Antiproliferative activity against human U87MG assessed as combination index at 20 uM incubated for 72 hrs in presence of GI50 dose of Lapatinib by CellTiter-Glo luminescence assay; format: functional, U-87MG ATCC
HL-60 = test: Antiproliferative activity against human HL60 cells incubated for 72 hrs by CellTiter-Glo luminescence assay; format: functional; conditions: HL-60, 72 h
NAMALVA = test: Antiproliferative activity against human NAMALWA cells incubated for 72 hrs by CellTiter-Glo luminescence assay; format: functional
SK-ES1 = test: Antiproliferative activity against human SK-ES-1 cells incubated for 72 hrs by CellTiter-Glo luminescence assay; format: functional; conditions: SK-ES1, 72 h
A673 = test: Antiproliferative activity against human A673 cells incubated for 72 hrs by CellTiter-Glo luminescence assay; format: functional; conditions: A673, 72 h
SK-OV-3 = test: Antiproliferative activity against human SKOV3 cells incubated for 72 hrs by CellTiter-Glo luminescence assay; format: functional; conditions: SK-OV-3, 72 h
MV4-11 [10] = test: Antiproliferative activity against human MV4-11 assessed as combination index at 10 uM incubated for 72 hrs in presence of GI50 dose of Lapatinib by CellTiter-Glo luminescence assay; format: functional
SK-MEL19 [11] = test: Antiproliferative activity against human SK-MEL-19 assessed as combination index at 5 uM incubated for 72 hrs in presence of GI50 dose of Taxotere by CellTiter-Glo luminescence assay; format: functional
A-375 = test: Antiproliferative activity against human A375 cells incubated for 72 hrs by CellTiter-Glo luminescence assay; format: functional; conditions: A-375, 72 h
DU-145 = test: Antiproliferative activity against human DU145 cells incubated for 72 hrs by CellTiter-Glo luminescence assay; format: functional; conditions: DU-145, 72 h
MV4-11 [12] = test: Antiproliferative activity against human MV4-11 cells incubated for 72 hrs by CellTiter-Glo luminescence assay; format: functional; conditions: MV4-11, 72 h
[13] = molecular target: Serine/threonine-protein kinase pim-1 (Homo sapiens, UniProt P11309); test: Inhibition of PIM1 in human NCI-H1299 cells assessed as reduction in BAD phosphorylation at Ser-112 residue incubated for 4 hrs by ELISA; format: cell-based; conditions: read-out: EC50
T47D = test: Antiproliferative activity against human T47D cells incubated for 72 hrs by CellTiter-Glo luminescence assay; format: functional
U-251 = test: Antiproliferative activity against human U251 cells incubated for 72 hrs by CellTiter-Glo luminescence assay; format: functional; conditions: U-251, 72 h
Raji = test: Antiproliferative activity against human Raji assessed as combination index at 20 uM incubated for 72 hrs in presence of GI50 dose of Palbociclib by CellTiter-Glo luminescence assay; format: functional
[14] = molecular target: Serine/threonine-protein kinase pim-2 (Homo sapiens, UniProt Q9P1W9); test: Inhibition of His tagged human recombinant PIM2 using PIM tide (ARKRRRHPSGPPTA) as substrate incubated for 1 hr by fluorescence based assay
PANC-1 = test: Antiproliferative activity against human PANC1 cells incubated for 72 hrs by CellTiter-Glo luminescence assay; format: functional; conditions: PANC-1, 72 h
MDA-MB-231 [15] = test: Antiproliferative activity against human MDA-MB-231 cells incubated for 72 hrs by CellTiter-Glo luminescence assay; format: functional; conditions: MDA-MB-231, 72 h
JeKo-1 [16] = test: Antiproliferative activity against human JeKo1 assessed as combination index at 10 uM incubated for 72 hrs in presence of GI50 dose of GDC-0941 by CellTiter-Glo luminescence assay; format: functional
MIA PaCa-2 [17] = test: Antiproliferative activity against human MIAPaCa2 assessed as combination index at 20 uM incubated for 72 hrs in presence of GI50 dose of GDC-0941 by CellTiter-Glo luminescence assay; format: functional
JeKo-1 [18] = test: Antiproliferative activity against human JeKo1 cells incubated for 72 hrs by CellTiter-Glo luminescence assay; format: functional; conditions: JeKo-1, 72 h
SW-620 = test: Antiproliferative activity against human SW620 cells incubated for 72 hrs by CellTiter-Glo luminescence assay; format: functional; conditions: SW-620, 72 h
MDA-MB-231 [19] = test: Antiproliferative activity against human MDA-MB-231 assessed as combination index at 20 uM incubated for 72 hrs in presence of GI50 dose of PD-0325901 by CellTiter-Glo luminescence assay; format: functional

COCCN1CCOc2c1cnn1c(-c3ccc4cccc(NCC5CCNCC5)c4n3)nnc21
GI50 (MIA PaCa-2 [1]): 17.4 µM
GI50 (HCT-116): 21.2 µM
clearance [2]: 21 mL/min/kg
GI50 (K562): 19.9 µM
CI (SK-MEL19 [3]): 0.308
GI50 (PC-3 [4]): 17.1 µM
CI (SK-MEL19 [5]): 0.351
CI (MV4-11 [6]): 0.526
GI50 (NCI-H1650): 22.5 µM
GI50 (BXPC-3): 9.21 µM
GI50 (COLO 205): 5.25 µM
GI50 (BT-549): 20.4 µM
CLH [7]: < 30%
GI50 (A549): 16.2 µM
CI (PC-3 [8]): 0.346
CI (MIA PaCa-2 [9]): 0.069
CI (U-87 MG): 0.43
GI50 (HL-60): 13.6 µM
GI50 (NAMALVA): 9.68 µM
GI50 (SK-ES1): 7.38 µM
GI50 (A673): 12.7 µM
GI50 (SK-OV-3): 23.5 µM
CI (MV4-11 [10]): 0.43
CI (SK-MEL19 [11]): 0.535
GI50 (A-375): 21.8 µM
GI50 (DU-145): 22.4 µM
GI50 (MV4-11 [12]): 6.46 µM
EC50 [13]: 0.262 µM
GI50 (T47D): 10.8 µM
GI50 (U-251): 17.8 µM
CI (Raji): 0.52
IC50 [14]: 5.53 µM
GI50 (PANC-1): 25.4 µM
GI50 (MDA-MB-231 [15]): 21.2 µM
CI (JeKo-1 [16]): 0.295
CI (MIA PaCa-2 [17]): 0.075
GI50 (JeKo-1 [18]): 7.3 µM
GI50 (SW-620): 8.73 µM
CI (MDA-MB-231 [19]): 0.32
